In patent publication US20020082420A1, “Bicyclic heterocycles, pharmaceutical compositions containing them, their use, and processes for preparing them” (priority 2000, published 2002):
Structures can show the parent of a compound that is named as a salt.

In the case of `COC(=O)CC(C(=O)OC)N1CCC(Nc2ncc3ncnc(Nc4cccc(Br)c4)c3n2)CC1` (stereo not shown) (as salt: maleate) [Example 6(4), 4-[(3-bromophenyl)amino]-6-({1-[1,2-bis(methoxycarbonyl)ethyl]piperidin-4-yl}amino)pyrimido[5,4-d]pyrimidine], the melting point is reported as 193 °C. For `O=C(O)CCN1CCC(Nc2ncc3ncnc(Nc4ccc(F)c(Cl)c4)c3n2)CC1` [Example 1(1), 4-[(3-chloro-4-fluorophenyl)amino]-6-{[1-(2-carboxyethyl)piperidin-4-yl]amino}pyrimido[5,4-d]pyrimidine], the melting point was 217 to 225 °C. Compound `O=C(O)CCCN1CCC(Nc2ncc3ncnc(Nc4ccc(F)c(Cl)c4)c3n2)CC1` [Example 1(2), 4-[(3-chloro-4-fluorophenyl)amino]-6-{[1-(3-carboxypropyl)piperidin-4-yl]amino}pyrimido[5,4-d]pyrimidine] has a melting point of 145 to 165 °C. `CN(CCCC(=O)O)[C@H]1CC[C@H](Nc2ncc3ncnc(Nc4ccc(F)c(Cl)c4)c3n2)CC1` [Example 1(5), 4-[(3-chloro-4-fluorophenyl)amino]-6-({trans-4-[N-(3-carboxypropyl)-N-methylamino]cyclohex-1-yl}amino)pyrimido[5,4-d]pyrimidine] gave a melting point of 217 to 221 °C. `O=C(O)CCN1CCN(c2ncc3ncnc(Nc4ccc(F)c(Cl)c4)c3n2)CC1` [Example 1(7), 4-[(3-chloro-4-fluorophenyl)amino]-6-[4-(2-carboxyethyl)piperazin-1-yl]pyrimido[5,4-d]pyrimidine] showed a melting point of 111 to 145 °C. In the case of `O=C(O)CN1CCN(CCNc2ncc3ncnc(Nc4ccc(F)c(Cl)c4)c3n2)CC1` [Example 1(13), 4-[(3-chloro-4-fluorophenyl)amino]-6-{2-[4-(carboxymethyl)piperazin-1-yl]ethylamino}pyrimido[5,4-d]pyrimidine], the melting point is reported as 240 to 242 °C (dec.). Compound `NC1(C(=O)O)CCN(c2ncc3ncnc(Nc4ccc(F)c(Cl)c4)c3n2)CC1` [Example 1(14), 4-[(3-chloro-4-fluorophenyl)amino]-6-(4-amino-4-carboxypiperidin-1-yl)pyrimido[5,4-d]pyrimidine] has a melting point of 277 to 282 °C. Compound `O=C(O)CCNCC1CCN(c2ncc3ncnc(Nc4ccc(F)c(Cl)c4)c3n2)CC1` [Example 1(16), 4-[(3-chloro-4-fluorophenyl)amino]-6-(4-{[(2-carboxyethyl)amino]methyl}piperidin1-yl)pyrimido[5,4-d]pyrimidine] has a melting point of 209 to 214 °C. Work on `O=C(O)CNCC1CCN(c2ncc3ncnc(Nc4ccc(F)c(Cl)c4)c3n2)CC1` [Example 1(17), 4-[(3-chloro-4-fluorophenyl)amino]-6-(4-{[(carboxymethyl)amino]methyl}piperidin-1-yl)pyrimido[5,4-d]pyrimidine] yielded a melting point of 226 to 235 °C. For `O=C(O)CN(CC(=O)O)[C@H]1CC[C@H](Nc2ncc3ncnc(Nc4ccc(F)c(Cl)c4)c3n2)CC1` [Example 1(18), 4-[(3-chloro-4-fluorophenyl)amino]-6-({trans-4-[N,N-bis(carboxymethyl)amino]cyclohex-1-yl}amino)pyrimido[5,4-d]pyrimidine], the melting point was 245 °C (dec.). In the case of `O=C(O)CCN(CCC(=O)O)CC1CCN(c2ncc3ncnc(Nc4ccc(F)c(Cl)c4)c3n2)CC1` [Example 1(19), 4-[(3-chloro-4-fluorophenyl)amino]-6-(4-{[N,N-bis(2-carboxyethyl)amino]methyl}piperidin-1-yl)pyrimido[5,4-d]pyrimidine], the melting point is reported as 160 to 169 °C. For `O=C(O)CN[C@H]1CC[C@H](Nc2ncc3ncnc(Nc4ccc(F)c(Cl)c4)c3n2)CC1` [Example 1(27), 4-[(3-chloro-4-fluorophenyl)amino]-6-({trans-4-[(carboxymethyl)amino]cyclohex-1-yl}amino)pyrimido [5,4-d]pyrimidine], the melting point was 201 to 205 °C (dec.). For `CC1(NCCC(=O)O)CCN(c2ncc3ncnc(Nc4ccc(F)c(Cl)c4)c3n2)CC1` [Example 1(30), 4-[(3-chloro-4-fluorophenyl)amino]-6-{4-methyl-4-[(2-carboxyethyl)amino]piperidin-1-yl}pyrimido[5,4-d]pyrimidine], the melting point was 157 to 160 °C. With `CC1(NCC(=O)O)CCN(c2ncc3ncnc(Nc4ccc(F)c(Cl)c4)c3n2)CC1` [Example 1(32), 4-[(3-chloro-4-fluorophenyl)amino]-6-{4-methyl-4-[(carboxymethyl)amino]piperidin-1-yl}pyrimido[5,4-d]pyrimidine] the melting point was 160 °C (dec.). With `CCCOC(=O)CN1CCC(Nc2ncc3ncnc(Nc4ccc(F)c(Cl)c4)c3n2)CC1` [Example 2(2), 4-[(3-chloro-4-fluorophenyl)amino]-6-({1-[(propyloxycarbonyl)methyl]piperidin-4-yl}amino)pyrimido[5,4-d]pyrimidine] the melting point was 135 to 137 °C. Work on `CC(C)OC(=O)CN1CCC(Nc2ncc3ncnc(Nc4ccc(F)c(Cl)c4)c3n2)CC1` [Example 2(3), 4-[(3-chloro-4-fluorophenyl)amino]-6-({1-[(isopropyloxycarbonyl)methyl]piperidin-4-yl}amino)pyrimido[5,4-d]pyrimidine] yielded a melting point of 175 to 177 °C. `O=C(CN1CCC(Nc2ncc3ncnc(Nc4ccc(F)c(Cl)c4)c3n2)CC1)OC1CCCCC1` [Example 2(4), 4-[(3-chloro-4-fluorophenyl)amino]-6-({1-[(cyclohexyloxycarbonyl)methyl]piperidin-4-yl}amino)pyrimido[5,4-d]pyrimidine] showed a melting point of 184 to 186 °C. In the case of `COC(=O)CCN1CCC(Nc2ncc3ncnc(Nc4ccc(F)c(Cl)c4)c3n2)CC1` [Example 2(5), 4-[(3-chloro-4-fluorophenyl)amino]-6-({1-[2-(methoxycarbonyl)ethyl]piperidin-4-yl}amino)pyrimido[5,4-d]pyrimidine], the melting point is reported as 136 to 137 °C. `COC(=O)CCCN1CCC(Nc2ncc3ncnc(Nc4ccc(F)c(Cl)c4)c3n2)CC1` [Example 2(6), 4-[(3-chloro-4-fluorophenyl)amino]-6-({1-[3-(methoxycarbonyl)propyl]piperidin-4-yl}amino)pyrimido[5,4-d]pyrimidine] gave a melting point of 135 to 137 °C. For `COC(=O)CCN(C)[C@H]1CC[C@H](Nc2ncc3ncnc(Nc4ccc(F)c(Cl)c4)c3n2)CC1` [Example 2(8), 4-[(3-chloro-4-fluorophenyl)amino]-6-[(trans-4-{N-[2-(methoxycarbonyl)ethyl]-N-methylamino}cyclohex-1-yl)amino]pyrimido[5,4-d]pyrimidine], the melting point was 126 to 128 °C. In the case of `COC(=O)CCCN(C)[C@H]1CC[C@H](Nc2ncc3ncnc(Nc4ccc(F)c(Cl)c4)c3n2)CC1` [Example 2(9), 4-[(3-chloro-4-fluorophenyl)amino]-6-[(trans-4-{N-[3-(methoxycarbonyl)propyl]-N-methylamino}cyclohex-1-yl)amino]pyrimido[5,4-d]pyrimidine], the melting point is reported as 99 to 102 °C. In the case of `COC(=O)CCN1CCN(c2ncc3ncnc(Nc4ccc(F)c(Cl)c4)c3n2)CC1` [Example 2(11), 4-[(3-chloro-4-fluorophenyl)amino]-6-[4-[2-(methoxycarbonyl)ethyl]piperazin-1-yl]pyrimido[5,4-d]pyrimidine], the melting point is reported as 140 to 142 °C. `COC(=O)CCC1CCN(C2CCN(c3ncc4ncnc(Nc5ccc(F)c(Cl)c5)c4n3)C2)CC1` (stereo not shown) [Example 2(16), 4-[(3-chloro-4-fluorophenyl)amino]-6-(3-{4-[2-(methoxycarbonyl)ethyl]piperidin-1-yl}-pyrrolidin-1-yl)pyrimido[5,4-d]pyrimidine] showed a melting point of 166 to 168 °C. With `COC(=O)C1CCCN1CC1CCN(c2ncc3ncnc(Nc4ccc(F)c(Cl)c4)c3n2)CC1` (stereo not shown) [Example 2(21), 4-[(3-chloro-4-fluorophenyl)amino]-6-(4-{[2-(methoxycarbonyl)pyrrolidin 1-yl]methyl}piperidin-1-yl)pyrimido[5,4-d]pyrimidine] the melting point was 151 to 154 °C. For `CCOC(=O)CN1CCN(CC2CCN(c3ncc4ncnc(Nc5ccc(F)c(Cl)c5)c4n3)CC2)CC1` [Example 2(22), 4-[(3-chloro-4-fluorophenyl)amino]-6-[4-({4-[(ethoxycarbonyl)methyl]piperazin-1-yl}methyl)piperidin-1-yl]pyrimido[5,4-d]pyrimidine], the melting point was 145 to 149 °C. In the case of `CCOC(=O)CN1CCC(Nc2ncc3ncnc(Nc4ccc(F)c(Cl)c4)c3n2)CC1` [Example 2, 4-[(3-chloro-4-fluorophenyl)amino]-6-({1-[(ethoxycarbonyl)methyl]piperidin-4-yl}amino)pyrimido[5,4-d]pyrimidine], the melting point is reported as 136 to 138 °C. With `COC(=O)CCNC1(C)CCN(c2ncc3ncnc(Nc4ccc(F)c(Cl)c4)c3n2)CC1` [Example 6(3), 4-[(3-chloro-4-fluorophenyl)amino]-6-{4-methyl-4-[2-(methoxycarbonyl)ethyl]aminopiperidin-1-yl}pyrimido[5,4-d]pyrimidine] the melting point was 134 to 135 °C. In the case of `CCOC(=O)CC(CC(=O)OCC)N1CCC(Nc2ncc3ncnc(Nc4cccc(Br)c4)c3n2)CC1` [Example 6(5), 4-[(3-bromophenyl)amino]-6-[(1-{1-[(ethoxycarbonyl)methyl]-2-(ethoxycarbonyl)ethyl}piperidin-4-yl)amino]pyrimido-[5,4-d]pyrimidine], the melting point is reported as 132 °C.
